Experimental data reported in patent US9375436B2, “Androgen treatment in females” (priority 2004, dated 2016).
“And” between values parts separate entries of the source, which are not always exact repeats. Equal values may be shown once.

How the values were obtained:
Type in all cases: in vivo, human
[1] = tested on: embryos of women undergoing IVF; experiment: Pre-implantation genetic diagnosis, euploidy rate by length of DHEA usage (Example 3)
Method: In another study (data not shown), patients were analyzed after four weeks of DHEA treatment. Seven patients had embryos tested by pre-implantation genetic diagnosis (PGD). In three women who had PGD after less than four weeks of DHEA usage and a mean age 41.5±5.1 at the time of starting IVF cycles, the euploidy, or normal chromosome number, rate was 2/30 embryos (6.6%). […] There is a mean age difference between patients who underwent IVF after less than four weeks of DHEA usage (mean age 41.5±5.1) and patients who underwent IVF after at least four weeks of DHEA usage (mean age 43.7±1.3).

[2] = tested on: women with diminished ovarian reserve (DOR); experiment: IVF cycle and PGD outcomes in DHEA-treated women with DOR (Example 4)
Excerpt: All the IVF cycles performed at the Center for Human Reproduction (CHR) in New York, N.Y., between 2004 and 2006 for cycles performed in women with a diagnosis of DOR were retroactively reviewed. The study population, involving 27 IVF cycles, was selected amongst those cycles which, in addition, had undergone preimplantation genetic diagnosis (PGD).
The diagnosis of DOR was made based on previously reported abnormally high, age stratified baseline FSH levels. In practical terms, this meant that a diagnosis of DOR was reached if baseline FSH levels exceeded the 95% confidence interval of age appropriate levels, independent of prior IVF retrievals and/or oocyte numbers. At, or above age 43, all patients were considered to suffer from DOR, independent of baseline FSH level.
If under age 40, DHEA was given for up to four months prior to IVF. Women of older age received DHEA, if possible, for at least two months.
For the purpose of this analysis, a patient had to be for at least one month (30 days) on DHEA supplementation in order for the IVF cycle to be considered amongst DHEA-treated cycles. All other DOR patients were considered to have received no DHEA treatment. Following this definition, 19 DOR patients had received no DHEA supplementation, and eight had.
All women with DOR, independent of DHEA supplementation, were stimulated with identical protocols, as previously reported in detail elsewhere. In short, they, without exception, received a microdose agonist protocol with maximal goandotropin stimulation of 600 IU to 750 IU daily, with preponderance of FSH, and a smaller daily amount of human menopausal gonadotropin (hMG).
PGD was performed in routine fashion, as also previously described in detail, and involved the analysis of chromosomes X, Y, 13, 16, 18, 21 and 22 by fluorescence in situ hybridization (FISH) on day three after fertilization. Embryo transfer occurred on day five after fertilization.
Patients were represented by only one cycle outcome in each group. If patients had undergone more than one cycle, either with, or without, DHEA supplementation, only their latest cycle was included in the analysis. Three patients underwent both a pre-DHEA and a post-DHEA cycle and in those cases both cycles were included in the analysis.
Statistical analysis was performed using SPSS for windows, standard version 10.0.7. Data are presented as mean±one standard deviation, unless otherwise noted, and statistical differences between the two study groups were tested by Chi-square and (two-sided) Fisher's Exact Test, where applicable, with significance being defined as p<0.05.

[3] = tested on: person with prematurely aging ovaries; experiment: Case report: DHEA substitution in probable 17,20-desmolase deficiency (Patient B, Example 5); details: for Estradiol periovulatory: spontaneous ovulation
Method: In a further study, a case of probable 17, 20-desmolase deficiency, resulting in abnormally low estradiol, DHEA, androstenedione and testosterone levels, is presented in a person with a clinical history of, initially, unexplained infertility and, later, prematurely aging ovaries.
In July of 2003, the patient was started on 25 mg daily of micronized DHEA. After five weeks of treatment, DHEA, DHEA-S and androstenedione levels had normalized into mid-ranges. (Even though androstenedione is partially produced through the activity of 17,20-desmolase from 17-hydroxyprogesterone, part is also derived from DHEA through the activity of 3-beta hydroxysteroid dehydrogenase [Speroff et al., 1999a]. The normalization of androstenedione, after DHEA administration, therefore, also speaks for an underlying 17,20-desmolase defect, and not a 3-beta hydroxysteroid dehydrogenase deficiency.) In the third and fourth month, following the start of DHEA supplementation, the patient ovulated spontaneously with estradiol levels of 268 and 223 pg/ml (Table 2), respectively, measured on the day of LH surge.
On Jan. 28, 2004, and after DHEA therapy of approximately six months, a fourth IVF cycle was initiated. Their baseline FSH level in that cycle was 9.6 mIU/ml, estradiol 56 pg/ml. Stimulation took place with 300 IU of recombinant FSH (without hMG) and with an agonist flare protocol. […] A triplet pregnancy was established with heart beats. Two, out of the three fetuses lost heart beat spontaneously, and the patient delivered by cesarean section, at term, a healthy singleton infant.

[4] = tested on: women with diminished ovarian reserve; experiment: Gender of offspring and embryos conceived on DHEA treatment (Example 6)
Method: The treatment protocol for long-term supplementation with DHEA that may improve oocyte and embryo quantity, quality, pregnancy rates and time to conception in women with diminished ovarian reserve, involves 25 mg of micronized, pharmaceutical grade DHEA, TID will usually uniformly raise levels of unconjugated DHEA above about 350 ng/dl, and, therefore, raise baseline testosterone. Estradiol baseline levels may also be raised.
A total of 19 pregnancies were recorded with 16 singleton and 3 twin pregnancies. The medical records of all 19 women were reviewed in order to determine whether they conceived spontaneously, defined as including pregnancies conceived with intrauterine inseminations, or by IVF. If conception had occurred by IVF, it was recorded whether fertilization was spontaneous or by intracytoplasmic sperm injection (ICSI).
As a control group, seven women were selected who had undergone one IVF cycle with preimplantation genetic diagnosis (PGD), while for at least 60 days on DHEA supplementation, but had not conceived. The PGD data, defining each embryo's gender, were recorded. Statistics were performed using a binomial runs test, comparing seen distributions with an expected distribution of 50 percent, with p≦0.05 defining significance.

[5] = 3 women with DHEA and no-DHEA cycles, DHEA-treated cycle
[6] = DHEA-treated cycles n = 8, PGD by FISH
[7] = DHEA-treated cycles, at least one euploid embryo for transfer
[8] = January 2004, 4th IVF cycle start, DHEA approximately six months
[9] = fourth IVF cycle after DHEA therapy of approximately six months
[10] = 15 offspring of pregnancies achieved through IVF
[11] = 53 embryos from 17 IVF cycles, women on DHEA, all ICSI
[12] = sixteen singleton pregnancies conceived on DHEA for at least 60 days

C[C@]12CC[C@H](O)CC1=CC[C@@H]1[C@@H]2CC[C@]2(C)C(=O)CC[C@@H]12 [DHEA, Dehydroepiandrosterone]
euploidy rate ([1]; PGD after less than four weeks of DHEA usage, three women, 2/30 embryos): 6.6%
euploidy rate ([1]; PGD after more than four weeks of DHEA usage, six patients, 8/27 embryos): 29.6%
Aneuploid Embryos [2, 5]: 2.0 ± 1.8
Oocytes ± SD [2, 5]: 6.0 ± 4.8
Total Embryos ± SD [2, 5]: 4.0 ± 2.7
Embryos ± SD (total number) ([2]; DHEA-treated cycles n = 8): 9.1 ± 7.3
Oocytes ± SD ([2]; DHEA-treated cycles n = 8): 10.4±7.3
Peak Estradiol ± SD ([2]; DHEA-treated cycles n = 8, 25 mg TID at least one month): 2310.3 ± 1108.1 pg/mL
% Aneuploid ± SD [2, 6]: 55.9 ± 37.8%
% Euploid ± SD [2, 6]: 44.1 ± 37.8%
n Aneuploid ± SD [2, 6]: 4.4 ± 3.0
n Euploid ± SD [2, 6]: 2.1 ± 1.4
Patients with euploid embryos (%) [2, 7]: 100%
Patients with euploid embryos (n/N) [2, 7]: 8/8
Testosterone free ([3]; December 2003, on DHEA, normal (1-21)): 2 pg/mL
Testosterone free and weekly bound ([3]; December 2003, on DHEA, normal (3-29)): 4 ng/dL
Estradiol baseline [3, 8]: 56 pg/mL
FSH baseline [3, 8]: 9.6 mIU/ml
FSH ([3]; January 2004, on DHEA, first value): 18 mIU/ml
Androstenedione level ([3]; July 2003 after DHEA treatment start, normal (65-270)): 121 ng/dL
Estradiol ([3]; November 2003, on DHEA): 38 pg/mL
FSH ([3]; November 2003, on DHEA): 17 mIU/ml
Estradiol ([3]; October 2003, on DHEA): 44 pg/mL
FSH ([3]; October 2003, on DHEA): 14.7 mIUI/ml
Estradiol periovulatory ([3]; October 2003, on DHEA): 223 pg/mL and 224 pg/mL
Estradiol periovulatory ([3]; September 2003, on DHEA): 268 pg/mL
oocytes retrieved [3, 9]: 8
peak estradiol level [3, 9]: 1764 pg/mL
female offspring [4, 10]: 3
male offspring [4, 10]: 12
female embryos by PGD [4, 11]: 26
male embryos by PGD [4, 11]: 27
female offspring, final gender distribution ([4]; singletons plus twins): 6
male offspring, final gender distribution ([4]; singletons plus twins): 15
female offspring [4, 12]: 5
male offspring [4, 12]: 11
